Values of other authors in patent US9329191B2, “Reaction-based fluorescent probe for selective detection of carbon monoxide using metal-mediated carbonylation” (THE REGENTS OF THE UNIVERSITY OF CALIFORNIA, priority 2013, dated 2016).

Conditions: literature

SMILES: NCC(=O)O.[C-]#[O+].[C-]#[O+].[C-]#[O+].[Cl][Ru] [CORM-3, [Ru(CO)3Cl(glycinate)]]
- CORM-3 concentration shown to not alter cell viability: up to 500 μM
